The values below come from ChEMBL document CHEMBL6153028, “Understanding the synergistic sensitization of natural products and antibiotics: An effective strategy to combat MRSA” (2025).

Holding throughout (format): functional
For assay [1], the system named is Staphylococcus aureus. The experiment in a line: Synergistic antimicrobial activity against methicillin-resistant Staphylococcus aureus CCARM 3089 assessed as fractional inhibitory concentration index in presence of Ceftiofur incubated for 24 hrs by checkerboard assay.
The subject of assay [2] is Staphylococcus aureus. Kind of assay: Synergistic antimicrobial activity against methicillin-resistant Staphylococcus aureus assessed as fractional inhibitory concentration index in presence of chloramphenicol incubated for 24 hrs by checkerboard assay.
The subject of assay [3] is Staphylococcus aureus. Kind of assay: Synergistic antimicrobial activity against methicillin-resistant Staphylococcus aureus assessed as fractional inhibitory concentration index in presence of vancomycin by checkerboard assay.
Assay [4] deals with Staphylococcus aureus. Kind of assay: Synergistic antimicrobial activity against methicillin-resistant Staphylococcus aureus assessed as fractional inhibitory concentration index in presence of levofloxacin by checkerboard assay.
Assay [5] has as its system Staphylococcus aureus. The experiment in a line: Synergistic antibacterial activity against methicillin resistant Staphylococcus aureus assessed as fractional inhibitory concentration index in presence of minocycline by checkerboard assay.
Assay [6] relates to Staphylococcus aureus. Kind of assay: Synergistic antibacterial activity against methicillin resistant Staphylococcus aureus assessed as fractional inhibitory concentration index in presence of levofloxacin.
Assay [7] has as its system Staphylococcus aureus. Kind of assay: Synergistic antibacterial activity against methicillin resistant Staphylococcus aureus assessed as fractional inhibitory concentration index in presence of ceftazidime.
The subject of assay [8] is Staphylococcus aureus. The experiment in a line: Synergistic antibacterial activity against […] Staphylococcus aureus ATCC 29213 assessed as fractional inhibitory concentration index incubated for 24 hrs in presence of ciprofloxacin by checkerboard assay.
Assay [9] concerns Staphylococcus aureus. The experiment in a line: Synergistic antibacterial activity against […] Staphylococcus aureus ATCC 29213 assessed as fractional inhibitory concentration index incubated for 24 hrs in presence of pencillin by checkerboard assay.
Assay [10] deals with Staphylococcus aureus. Kind of assay: Synergistic antibacterial activity against […] Staphylococcus aureus ATCC 29213 assessed as fractional inhibitory concentration index incubated for 24 hrs in presence of amoxicillin by checkerboard assay.
Assay [11] relates to Staphylococcus aureus. The experiment in a line: Synergistic antimicrobial activity against Staphylococcus aureus DSM 1104 planktonic cells assessed as fractional inhibitory concentration index in presence of gentamicin by checkerboard assay.
Assay [12] has as its system Staphylococcus aureus. Kind of assay: Synergistic antimicrobial activity against Staphylococcus aureus DSM 1104 planktonic cells assessed as fractional inhibitory concentration index in presence of oxacillin by checkerboard assay.
Assay [13] relates to Staphylococcus aureus. The experiment in a line: Synergistic antibacterial activity against methicillin resistant Staphylococcus aureus assessed as fractional inhibitory concentration index in presence of ampicillin incubated for 24 hrs by checkerboard assay.
The test system of assay [14] is Staphylococcus aureus. Kind of assay: Synergistic antibacterial activity against methicillin resistant Staphylococcus aureus assessed as fractional inhibitory concentration index in presence of penicillin incubated for 24 hrs by checkerboard assay.
Assay [15] deals with Staphylococcus aureus. Kind of assay: Synergistic antibacterial activity against methicillin resistant Staphylococcus aureus assessed as fractional inhibitory concentration index in presence of oxacillin incubated for 24 hrs by checkerboard assay.
Assay [16] deals with Staphylococcus aureus. Kind of assay: Synergistic antimicrobial activity against methicillin-resistant Staphylococcus aureus assessed as fractional inhibitory concentration index incubated for 24 hrs in presence of ampicillin by checkerboard assay.
The test system of assay [17] is Staphylococcus aureus. Kind of assay: Synergistic antimicrobial activity against methicillin resistant Staphylococcus aureus assessed as fractional inhibitory concentration index incubated for 24 hrs in presence of Norfloxacin by checkerboard assay.
The subject of assay [18] is Staphylococcus aureus. The experiment in a line: Synergistic antimicrobial activity against methicillin resistant Staphylococcus aureus assessed as fractional inhibitory concentration index incubated for 24 hrs in presence of rifampicin by checkerboard assay.
The test system of assay [19] is Staphylococcus aureus. Kind of assay: Synergistic antibacterial activity against methicillin resistant Staphylococcus aureus assessed as fractional inhibitory concentration index in presence of streptomycin incubated for 24 hrs by checkerboard assay.
In assay [20] the test system is Staphylococcus aureus. The experiment in a line: Synergistic antibacterial activity against methicillin resistant Staphylococcus aureus assessed as fractional inhibitory concentration index in presence of tetracycline.
Assay [21] concerns Staphylococcus aureus. The experiment in a line: Synergistic antibacterial activity against methicillin resistant Staphylococcus aureus assessed as fractional inhibitory concentration index in presence of ampicillin.
The test system of assay [22] is Staphylococcus aureus. Kind of assay: Synergistic antibacterial activity against methicillin resistant Staphylococcus aureus assessed as fractional inhibitory concentration index in presence of norfloxacin. The note with it: time 24 hrs.
Assay [23] has as its system Staphylococcus aureus. The experiment in a line: Synergistic antimicrobial activity against methicillin-resistant Staphylococcus aureus assessed as fractional inhibitory concentration index in presence of gentamicin incubated for 24 hrs by checkerboard assay.
Assay [24] has as its system Staphylococcus aureus. The experiment in a line: Synergistic antimicrobial activity against methicillin-resistant Staphylococcus aureus assessed as fractional inhibitory concentration index in presence of minocycline incubated for 24 hrs by checkerboard assay.
The subject of assay [25] is Staphylococcus aureus. Kind of assay: Synergistic antibacterial activity against methicillin resistant Staphylococcus aureus assessed as fractional inhibitory concentration index in presence of cephradine by checkerboard assay.
For assay [26], the system named is Staphylococcus aureus. The experiment in a line: Synergistic antibacterial activity against methicillin resistant Staphylococcus aureus assessed as fractional inhibitory concentration index in presence of ampicillin by checkerboard assay.
Assay [27] relates to Staphylococcus aureus. The experiment in a line: Synergistic antimicrobial activity against methicillin resistant Staphylococcus aureus assessed as fractional inhibitory concentration index incubated for 24 hrs in presence of oxytetracycline by checkerboard assay.
Assay [28] concerns Staphylococcus aureus. The experiment in a line: Synergistic antimicrobial activity against methicillin resistant Staphylococcus aureus assessed as fractional inhibitory concentration index incubated for 24 hrs in presence of sulbactam by checkerboard assay.

Take `O=c1c(O)cc([C@H]2Oc3cc(O)cc(O)c3C[C@H]2O)cc2c([C@H]3Oc4cc(O)cc(O)c4C[C@H]3O)cc(O)c(O)c12` [THEAFLAVIN]: in [1], the “fractional inhibitory concentration index (FICI)” value amounted to 0.187.

In the case of `COc1c2ccoc2c(OC)c2oc(=O)ccc12` [ISOPIMPINELLIN], the “fractional inhibitory concentration index (FICI)” value in assay [2], in assay [3] and in assay [4] was <0.5 throughout.

Consider `O=c1c(O)c(-c2ccc(O)c(O)c2)oc2cc(O)cc(O)c12` [QUERCETIN], for which the “fractional inhibitory concentration index (FICI)” value in assay [5] is on record as “<=0.5”.

As for `C/C(=C\C(O)=C\O)[C@@H]1Oc2cc(O[C@@H]3O[C@@H](C)[C@H](O)[C@@H](O)[C@H]3O)cc(O)c2C(=O)[C@H]1O`, the “fractional inhibitory concentration index (FICI)” value in assay [6] was determined as 0.25; in assay [7], 0.187.

`O=c1cc(-c2ccccc2)oc2cc(O)c(O)c(O)c12` [BAICALEIN]: the “fractional inhibitory concentration index (FICI)” value in assay [8] is recorded as <0.5; in [9], 0.14; in [10], 0.14.

As to `O=C(/C=C/c1ccc(O)cc1)CC(=O)/C=C/c1ccc(O)cc1` [BISDEMETHOXYCURCUMIN], the “fractional inhibitory concentration index (FICI)” value in [11] turned out to be 0.1; in assay [12], 0.51.

With `O=C(/C=C/c1ccc(O)cc1)c1ccc(O)cc1O` [ISOLIQUIRITIGENIN], the “fractional inhibitory concentration index (FICI)” value is 0.375 in assay [13], 0.375 in assay [14] and 0.312 in [15].

Take `Oc1ccc([C@H]2Oc3cc(O)cc4c3[C@@H]2c2cc(O)cc3c2[C@H](c2cc(O)cc5c2[C@H]4[C@@H](c2ccc(O)cc2)O5)[C@@H](c2ccc(O)cc2)O3)cc1`: the “fractional inhibitory concentration index (FICI)” value in assay [16], in assay [17] and in assay [18] was <0.5 each time.

Consider `CC(C)=CCc1cc([C@@H]2CC(=O)c3ccc(O)c(CC=C(C)C)c3O2)ccc1O` [GLABROL], for which the “fractional inhibitory concentration index (FICI)” value in assay [19] amounted to 0.188.

For the compound `COc1cc2oc(-c3ccc(O)cc3O)c(CC=C(C)C)c(=O)c2c(O)c1/C=C/C(C)C` [ARTOCARPIN], the figures for the “fractional inhibitory concentration index (FICI)” value in [20], in assay [21] and in assay [22] were 0.24, 0.37 and 0.15, respectively.

As to `COc1c2ccoc2c(OCC=C(C)C)c2oc(=O)ccc12` [PHELLOPTERIN], the “fractional inhibitory concentration index (FICI)” value was <0.5 in assay [23] and 0.5 in assay [24].

As to `O=c1cc(-c2ccc(O)c(O)c2)oc2cc(O)cc(O)c12` [LUTEOLIN], the figures for the “fractional inhibitory concentration index (FICI)” value in [25] and in assay [26] were 0.44 and 0.125, respectively.

Turning to `O=C(O[C@@H]1Cc2c(O)cc(O)cc2O[C@@H]1c1cc(O)c(O)c(O)c1)c1cc(O)c(O)c(O)c1` [EPIGALOCATECHIN GALLATE], the “fractional inhibitory concentration index (FICI)” value stood at 0.288 in [27], 0.19 in assay [16] and 0.19 in assay [28].
